The values below are quoted from earlier work in patent publication US7888378B2, “Thiadiazole compounds and uses thereof” (Mallinckrodt Inc., priority 2006, dated 2011).

The structures appear in SMILES notation.

This data set concerns tumors. As to conditions: after administering the substance.

For `NCC(=O)CCC(=O)O` [delta-aminolevulinic acid], the “uptake of porphyrins in tumors compared to normal tissues” value is reported as “two-fold”.
